Source: patent US10413557B2, “Prodrugs of 17.BETA.-HSD1-inhibitors” (FORENDO PHARMA LTD, priority 2014, dated 2019)
Converted amounts (≈) assume the structure as drawn.

Tests used:
[1] = target: T1, recombinant human 17β-HSD2 (Homo sapiens, UniProt P37059); experiment: Inhibition of recombinant human 17β-HSD2 (conversion of 3H-estradiol to estrone, HPLC); type: biochemical; settings: inhibitor 1 μM; 50 nM estradiol, 1 mM NADH, 30 min RT
T1 construct: made in house; host or cells: Sd9 (Sf9) insect cells, baculovirus (Bac to Bac Expression System)
T1 sequence (P37059 1-387): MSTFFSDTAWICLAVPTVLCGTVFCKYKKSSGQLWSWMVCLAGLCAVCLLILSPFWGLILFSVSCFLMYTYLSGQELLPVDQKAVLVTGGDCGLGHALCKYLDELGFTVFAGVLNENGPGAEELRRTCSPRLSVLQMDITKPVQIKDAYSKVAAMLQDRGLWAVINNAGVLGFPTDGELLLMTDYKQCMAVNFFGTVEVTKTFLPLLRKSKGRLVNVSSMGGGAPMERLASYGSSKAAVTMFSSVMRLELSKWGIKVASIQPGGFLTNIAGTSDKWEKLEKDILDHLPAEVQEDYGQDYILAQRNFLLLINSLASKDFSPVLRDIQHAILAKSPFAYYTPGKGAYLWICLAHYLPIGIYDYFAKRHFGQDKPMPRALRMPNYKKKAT
Method: 17β-HSD2 production and isolation: Similarly to 17β-HSD1 the Recombinant baculovirus was generated by the “Bac to Bac Expression System” (Invitrogen). Recombinant bacmid was transfected to Sd9 insect cells using “Cellfectin Reagent” (Invitrogen). 60 h later cells were harvested and supernatant were fractionated by the following protocol: • cells were dissolved into 40 ml of A-buffer (40 mM TRIS, pH8.0, 20% glycerol, 20 μM NAD, 0.4 mM PMSF, 150 mM NaCl, 0.5% dodecyl-β-maltoside+protease inhibitor cocktail) • cells were sonicated • lysate was incubated on ice for 15 min • lysate was centrifuged 5000 rpm 15 min, +4° C. • centrifugation of the supernatant 180 000 g 30 min, +4° C. • pellet was dissolved into 8 ml of A-buffer • not resuspended material was removed by centrifugation 5000 rpm 15 min, +4° C. • the clear supernatant was divided into 100 μl aliquots and were stored frozen until determination of enzymatic activity.
The amount of 17β-HSD2 was analysed by immunoblotting and total protein concentration of each extract batch was determined.
Assay—Inhibition of recombinant human 17β-HSD2: Protein homogenate (4 μg/ml) was incubated in 20 mM KH2PO4 pH 8.5 with 50 nM estradiol (including 800 000 cpm/ml of ^3H-estradiol) and 1 mM […] for 30 min at RT, in the presence of the potential inhibitor at concentrations 1 μM or 0.1 μM. Inhibitor stock solutions were prepared in DMSO. Final concentration of DMSO was adjusted to 1% in all samples. The enzyme reaction was stopped by addition of 10% trichloroacetic acid (final concentration). Samples were centrifuged in a microtiter plate at 4000 rpm for 10 min. Supernatants were applied to reverse phase HPLC on a Waters Symmetry C18 column, equipped with a Waters Sentry Guard column. Isocratic HPLC runs were performed at RT at a flow rate ofl ml/min in acetonitrile:water 48:52 as running solvent. Radioactivity was monitored in the eluate by a Packard Flow Scintillation Analyzer. Total radioactivity for estrone and estradiol were determined in each sample and percent conversion of estradiol to estrone was calculated according to the following formula:
(§1) Percent inhibition was calculated flowingly: % inhibition=100−% conversion

[2] = target: T2, recombinant human 17β-HSD1 (Homo sapiens, UniProt P14061); experiment: Inhibition of recombinant human 17β-HSD1 (conversion of 3H-estrone to estradiol, HPLC); type: biochemical; settings: inhibitor 1 μM; 30 nM estrone, 1 mM NADPH, 30 min RT; read-out: 17β-HDS1 Inhibition % at 1 μM
T2 construct: made in house; host or cells: Sd9 (Sf9) insect cells, baculovirus (Bac to Bac Expression System)
T2 sequence (P14061 1-328): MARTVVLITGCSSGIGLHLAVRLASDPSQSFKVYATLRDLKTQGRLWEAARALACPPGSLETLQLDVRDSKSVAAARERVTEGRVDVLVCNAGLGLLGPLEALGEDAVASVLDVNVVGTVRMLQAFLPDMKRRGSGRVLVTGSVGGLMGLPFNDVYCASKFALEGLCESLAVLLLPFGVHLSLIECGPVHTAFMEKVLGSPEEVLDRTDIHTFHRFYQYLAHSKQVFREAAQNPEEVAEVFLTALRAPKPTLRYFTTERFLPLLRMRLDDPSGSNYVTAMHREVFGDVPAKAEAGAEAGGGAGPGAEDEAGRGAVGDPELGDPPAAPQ
Method: 17β-HSD1 production and isolation: Recombinant baculovirus was generated by the “Bac to Bac Expression System” (Invitrogen). Recombinant bacmid was transfected to Sd9 insect cells using “Cellfectin Reagent” (Invitrogen). 60 h later cells were harvested; the microsomal fraction was isolated as described by Puranen, T. J., Poutanen, M. H., Peltoketo, H. E., Vihko, P. T. and Vihko, R. K. (1994) Site-directed mutagenesis of the putative active site of human 17 β-hydroxysteroid dehydrogenase type 1. Biochem. J. 304: 289-293. Aliquots were stored frozen until determination of enzymatic activity.
Assay—Inhibition of recombinant human 17β-HSD1: Protein homogenate (0.1 μg/ml) was incubated in 20 mM KH2PO4 pH 7.4 with 30 nM estrone (including 800 000 cpm/ml of ^3H-estrone) and 1 mM NADPH for 30 min at RT, in the presence of the potential inhibitor at concentrations 1 μM or 0.1 μM. Inhibitor stock solutions were prepared in DMSO. Final concentration of DMSO was adjusted to 1% in all samples. The enzyme reaction was stopped by addition of 10% trichloroacetic acid (final concentration). Samples were centrifuged in a microtiter plate at 4000 rpm for 10 min. Supernatants were applied to reverse phase HPLC on a Waters Symmetry C18 column, equipped with a Waters Sentry Guard column. Isocratic HPLC runs were performed at RT at a flow rate of 1 ml/min in acetonitrile:water 48:52 as running solvent. Radioactivity was monitored in the eluate by a Packard Flow Scintillation Analyzer. Total radioactivity for estrone and estradiol were determined in each sample and percent conversion of estrone to estradiol was calculated according to the following formula:
as §1

[3] = Aqueous solubility test; type: physicochemical; settings: for solubility: buffer solution, aqueous buffer, thermodynamic from solid, rt, buffer pH 7.4, stirred 48 hours or less, HPLC
Method: The pH of the mixtures was held constant during the study. Excess amounts or a known amount of each component are added to 1 or 0.5 ml of buffer solution and the mixtures were stirred at rt for 48 hours or less, filtered (0.45 μm Millipore) and analyzed by HPLC.

[4] = Metabolic stability assay; type: in vitro ADME; settings: human liver homogenate or microsomes
Method: The in vitro metabolic stability of the parent compounds was determined for exemplified compounds using human liver microsome and homogenate incubations. The incubation time points used with or without appropriate cofactors were 0 min and 60 min. Samples were collected at both time points and substrates were detected using LC/PDA/TOF-MS. In vitro metabolic stability (% remaining after 60 min in human liver homogenate or microsomes) of the compounds were calculated and the results are summarized in Table 4.

[5] = Determination of bioavailability: oral pharmacokinetics in Cynomolgus monkeys; type: in vivo; settings: dose corresponding to 10 mg/kg of parent drug, 0.5% Carboxymethyl cellulose in water
Method: This study was performed in order to determine bioavailability of the present compounds in vivo. All animal experiments are performed in accordance with standards of ethical conduct and appropriate institutional animal care and use policies.
The pharmacokinetic studies of the compounds of the invention were assessed in Cynomolgus monkeys. The study compounds were administrated orally at a dose level corresponding to 10 mg/kg of parent drug. The common aqueous formulation, 0.5% Carboxymethyl cellulose in water, was used as a vehicle. The blood samples were obtained by direct venipuncture at pre-dose, and ten sequential time points after oral administration.
The quantitative bioanalysis of plasma samples were performed in accordance with the guidance Bioanalytical Method Validation (FDA, 2001) and the Guideline on Bioanalytical Method Validation (European Medicines Agency, 2011). Analytical method was optimized for suitable chromatographic (peak shape, retention) and mass spectrometric (ionization efficiency) properties.
A non-compartmental pharmacokinetic analysis was carried out with individual plasma concentration-time curves using WinNonlin® Professional Version 6.3 (Pharsight Corporation): […]
The area under the concentration-time curve from 0 to the last measurable concentration (AUCt) was calculated using the linear-log trapezoidal rule.

`CO/N=C1\C[C@@H](CCC(=O)Nc2ncc(C)s2)C2C3CCc4cc(O)ccc4C3CC[C@]12C` (stereo partly drawn) [VIV-1, 3-{(13S,15R)-3-Hydroxy-17-[(E)-methoxyimino]-13-methyl-7,8,9,11,12,13,14,15,16,17-decahydro-6H-cyclopenta[a]phenanthren-15-yl}-N-(5-methylthiazol-2-yl)propanamide] showed an inhibition at 1 µM [1] of 4%, an inhibition at 1 µM [2] of 95% and a solubility [3] of under 0.52 µg/mL. The “In vitro metabolic stability, % remaining after 60 min” value [4] was 73%.
“Phosphoric acid mono-{(13S,15R)-17-[(E)-methoxyimino]-13-methyl-15-[2-(5-methylthiazol-2-ylcarbamoyl)ethyl-7,8,9,11,12,13,14,15,16,17-decahydro-6H-cyclopenta[a]phenanthren-3-yl} ester disodium salt [Compound 1a]” showed a Cmax [5] of 286 ng/mL and an AUCt ([5]; 0 to last measurable concentration) of 3170 ng·h/mL.
For `CO/N=C1\C[C@@H](CCC(=O)Nc2ncc(C)s2)C2C3CCc4cc(OC(=O)CN)ccc4C3CC[C@]12C` (stereo partly drawn) [Compound 3, Aminoacetic acid (13S,15R)-13-methyl-17[(E)-methoxyimino]-15-[2-(5-methyl-thiazol-2-ylcarbamoyl)-ethyl]-7,8,9,11,12,13,14,15,16,17-decahydro-6H-cyclopenta[a]phenanthren-3-yl ester], the solubility [3] was 2.37 µg/mL (≈ 4.52 µM) and the “aqueous solubility, in words” value ([3]; comment on Table 5, compared with parent VIV-1) was “improved aqueous solubility”.
